What was measured:
[1] = biological target: T1, His6-Flag-TEV-NLRP3 (134-1036) (Homo sapiens, UniProt Q96P20); assay: NLRP3 fluorescence polarization (FP) binding assay, competition with probe NP3-301; conditions: competition with NP3-301 for binding to NLRP3 (134-1036), 30 nM protein
T1 construct: fused on or other part: N-terminal His6 tag, Flag tag and TEV cleavage site
In short: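 Compound was preincubated 60 min at room temperature with NLRP3 protein (30 nM final) in 50 mM Hepes pH 7.4, 150 mM NaCl, 2.5 mM MgCl2, 1 mM TCEP, 100 μM ATP. Probe NP3-301 (0.5 nM final) was then added for 30 min. Fluorescence polarization was read at ex 485/em 535 nm, and IC50 was obtained by four-parameter logistic fit.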

hERG ion channel = biological target: T2, hERG ion channel (Homo sapiens, UniProt Q12809); assay: hERG ion channel inhibition, manual patch clamp in HEK293 cells; type: cell-based; conditions: HEK293 cells stably expressing hERG, read-out: hERG(IC50, manupatch)
T2 construct: host or cells: HEK293
Protocol: This experiment used manual patch clamp electrophysiology to detect the inhibitory effect of compounds on hERG ion channels, and evaluated cardiac safety based on the single concentration inhibition rate or IC50 size of the compounds.
The cells used in this experiment are HEK293 cell lines transfected with hERG cDNA and stably expressing hERG channels (#60187, provided by BPS, P3-P23 generations are used for experimental research). Cells were cultured in a medium containing the following components: MEM medium, 10% (v/v) inactivated fetal bovine serum, 1 mM sodium pyruvate, […] geneticin, 0.1 mM non-essential amino acids, and 100 U penicillin-streptomycin. HEK293 hERG cells were grown in culture flasks containing the above culture medium and cultured in an incubator at 37° C. and 5% CO2. […]
The electrophysiological experiments were performed by a manual patch clamp system (HEKAEPC-10 signal amplifier and digital conversion system, purchased from HEKA Electronics, Germany) to record the whole-cell current. […] After the hERG current recorded in the above steps reaches stability under continuous perfusion of extracellular fluid in the recording tank, different concentrations of the test compound can be perfused until the inhibitory effect of the drug on the hERG current reaches a stable state. […]

[2] = test system: IL-1β secretion of THP-1 cells; assay: Effect of NLRP3 inhibitor on IL-1β secretion of THP-1 cells (AlphaLISA); type: cell-based; conditions: Homo sapiens; PMA, LPS and Nigericin stimulated THP-1 cells, IL-1β in supernatant; read-out: IC50 (nM), THP-1 cells to detect NLRP3 inhibitors
Protocol: This experiment used the PerkinElmer AlphaLISA_human_IL1β kit (AL220 C/F). The detection buffer was RPMI-1640+10FBS. AlphaLISA Immunoassay Buffer, AlphaLISA Anti-IL1β Acceptor beads, Streptavidin (SA)-coated Donor beads, and Biotinylated Antibody Anti-IL1β were all included in the kit.
The density of THP1 cells was adjusted to 4×10^5 cells/mL, PMA (final concentration 50 nM) was added, inoculated into 96-well flat-bottom plates at 200 μL/well, and stimulated overnight at 37° C., 5% CO2 (try to <16h). The next day, the supernatant was discarded, and the flat washed twice with DPBS ([…]/time). Then LPS solution (final concentration of 100 ng/ml) was added at 198 μL/well, incubated at 37° C., 5% CO2 for 3h. 1 μL of the corresponding concentration of compounds was added to each well according to the experimental MAP, incubated at 37° C., 5% CO2 for 1 h. 1 μL Nigericin (final concentration of […]) was added to each well, incubated overnight at 5% CO2 (>18h). On the third day, 5 μL of supernatant was taken, diluted 20 times, and the content of IL-Iβ in the supernatant was detected by Human Interleukin 1 beta (IL1β) Kit. Envision was used to read the AlphaLISA test value of Ex=680/[…]. GraphPad Prism 9.5.0 was used to analyze the data, and the IC50 value of the compound for IL-Iβ antagonism was fitted by four-parameter Logistic.

T2 sequence (Q12809 whole entry): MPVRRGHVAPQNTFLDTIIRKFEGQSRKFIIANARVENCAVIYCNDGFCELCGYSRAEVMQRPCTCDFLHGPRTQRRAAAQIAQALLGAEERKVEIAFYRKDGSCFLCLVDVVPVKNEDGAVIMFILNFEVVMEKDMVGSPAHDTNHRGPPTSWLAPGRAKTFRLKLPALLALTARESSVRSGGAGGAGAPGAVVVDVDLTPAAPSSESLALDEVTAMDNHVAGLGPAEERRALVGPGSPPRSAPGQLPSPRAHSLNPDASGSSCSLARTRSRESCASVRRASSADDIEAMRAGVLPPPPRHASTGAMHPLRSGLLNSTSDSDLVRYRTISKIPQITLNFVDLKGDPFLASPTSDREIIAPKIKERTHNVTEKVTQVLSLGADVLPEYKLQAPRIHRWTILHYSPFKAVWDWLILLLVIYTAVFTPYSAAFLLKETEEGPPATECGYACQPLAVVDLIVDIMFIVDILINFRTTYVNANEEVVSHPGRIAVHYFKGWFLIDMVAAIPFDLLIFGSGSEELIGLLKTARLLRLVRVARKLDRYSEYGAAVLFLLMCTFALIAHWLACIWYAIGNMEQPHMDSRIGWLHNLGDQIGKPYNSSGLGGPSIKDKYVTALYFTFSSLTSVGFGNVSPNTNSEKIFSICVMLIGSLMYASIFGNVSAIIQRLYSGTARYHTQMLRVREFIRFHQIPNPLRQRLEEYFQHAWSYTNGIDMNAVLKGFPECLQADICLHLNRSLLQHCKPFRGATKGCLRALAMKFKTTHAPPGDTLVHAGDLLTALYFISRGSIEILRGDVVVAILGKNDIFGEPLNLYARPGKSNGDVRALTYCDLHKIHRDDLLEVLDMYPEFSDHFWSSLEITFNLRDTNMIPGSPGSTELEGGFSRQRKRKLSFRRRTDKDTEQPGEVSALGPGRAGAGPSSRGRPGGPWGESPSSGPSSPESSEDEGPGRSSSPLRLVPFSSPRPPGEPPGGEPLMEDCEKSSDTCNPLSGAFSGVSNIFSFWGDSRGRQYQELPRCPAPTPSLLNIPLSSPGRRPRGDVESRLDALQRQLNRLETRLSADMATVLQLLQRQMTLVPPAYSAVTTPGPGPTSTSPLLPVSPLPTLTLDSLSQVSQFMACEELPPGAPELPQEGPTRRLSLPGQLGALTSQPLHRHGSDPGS
T1 sequence (Q96P20 134-1036 limits assumed): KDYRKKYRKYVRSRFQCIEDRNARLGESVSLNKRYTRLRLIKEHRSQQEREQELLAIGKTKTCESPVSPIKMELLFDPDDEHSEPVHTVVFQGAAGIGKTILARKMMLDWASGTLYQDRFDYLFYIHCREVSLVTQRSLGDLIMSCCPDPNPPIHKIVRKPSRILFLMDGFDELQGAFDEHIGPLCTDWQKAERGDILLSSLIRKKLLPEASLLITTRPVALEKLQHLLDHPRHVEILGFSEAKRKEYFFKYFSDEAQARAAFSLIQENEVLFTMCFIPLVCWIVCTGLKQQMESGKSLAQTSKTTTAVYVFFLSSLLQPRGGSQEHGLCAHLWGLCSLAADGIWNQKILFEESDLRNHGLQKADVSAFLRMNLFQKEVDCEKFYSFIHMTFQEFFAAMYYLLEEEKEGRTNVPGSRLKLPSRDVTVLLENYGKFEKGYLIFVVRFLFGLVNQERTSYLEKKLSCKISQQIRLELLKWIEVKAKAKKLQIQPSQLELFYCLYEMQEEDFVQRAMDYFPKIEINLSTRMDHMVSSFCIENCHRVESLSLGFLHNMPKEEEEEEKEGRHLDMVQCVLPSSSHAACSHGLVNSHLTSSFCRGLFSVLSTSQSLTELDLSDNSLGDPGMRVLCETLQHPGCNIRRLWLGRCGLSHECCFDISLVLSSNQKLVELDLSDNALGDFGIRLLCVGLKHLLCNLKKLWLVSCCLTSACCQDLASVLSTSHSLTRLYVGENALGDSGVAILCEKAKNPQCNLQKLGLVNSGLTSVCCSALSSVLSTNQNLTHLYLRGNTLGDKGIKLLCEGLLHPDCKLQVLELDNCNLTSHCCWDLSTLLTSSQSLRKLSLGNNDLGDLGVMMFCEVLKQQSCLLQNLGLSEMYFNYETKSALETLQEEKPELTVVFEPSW

IC50 [1]: ≤ 100 nM | IC50 [2]: < 50 nM
SMILES: Cc1cc(C(F)(F)F)cc(O)c1-c1ccc2oc(N3CCS(=O)(=O)CC3)nc2n1 [Compound 384]
IC50 (hERG ion channel): > 30000 nM

— patent publication US20260234150A1, “COMPOUND FOR INHIBITING NLRP3, PREPARATION METHOD, AND USE” (DOVETREE MEDICINES UNUS, INC., priority 2023, published 2026)
